The values that follow come from patent US7932262B2 (Novartis AG, priority 2006, dated 2011).

The target of assay [1] is T1, PDK1 kinase (Homo sapiens, UniProt O15530).
T1 sequence (O15530 1-556): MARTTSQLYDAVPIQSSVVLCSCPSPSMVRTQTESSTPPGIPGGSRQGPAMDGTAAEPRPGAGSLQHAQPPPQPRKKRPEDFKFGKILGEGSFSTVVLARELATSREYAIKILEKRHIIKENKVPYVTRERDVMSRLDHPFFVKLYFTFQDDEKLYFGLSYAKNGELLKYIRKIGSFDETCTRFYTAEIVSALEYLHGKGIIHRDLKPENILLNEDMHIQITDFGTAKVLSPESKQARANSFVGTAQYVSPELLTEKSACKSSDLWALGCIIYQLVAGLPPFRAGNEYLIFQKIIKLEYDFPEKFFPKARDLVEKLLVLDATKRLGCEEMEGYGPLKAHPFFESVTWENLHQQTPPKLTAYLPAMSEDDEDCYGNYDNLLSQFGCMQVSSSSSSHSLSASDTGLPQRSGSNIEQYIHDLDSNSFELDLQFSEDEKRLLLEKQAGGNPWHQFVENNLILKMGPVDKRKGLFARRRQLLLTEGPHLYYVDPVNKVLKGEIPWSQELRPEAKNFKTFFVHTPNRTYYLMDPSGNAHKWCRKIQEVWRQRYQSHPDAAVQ
Briefly: PDK1 Kinase Alpha Screen Assay. The class given is biochemical. As to conditions: PDK1 Kinase Alpha Screen Assay; read-out: PDK1 IC50. In outline: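 Compound in DMSO added to PDK1-4 peptide; PDK1/ATP mix starts reaction (final 50 nM peptide, 10 uM ATP). Runs 3-18 hours, stopped with 90 mM EDTA buffer. Antibody/bead mix added, developed overnight at room temperature, then AlphaScreen signal read.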

The test system of assay [2] is A2780 cells. The assay can be described thus: Cell Proliferation Assay (Cell Titer Glo), A2780. The class given is cell-based. As to conditions: Homo sapiens; cell proliferation, A2780 cells; read-out: CPEC50 A2780. In outline: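 Cells seeded at 1000/well, allowed to adhere 3-5 h, then exposed to DMSO-dissolved compounds for 3 days at 37° C., 5% CO2. Medium replaced before Cell Titer Glo addition; luminescence read after 10 min.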
Background: In ATP-based viability assays light output follows the ATP content of the culture.

A value given as a limit tells only on which side of the number the result lay.

`Cn1cc(-c2ccc3cnc(Nc4ccc(S(N)(=O)=O)cc4)nc3c2OC2CCNCC2)cn1` [Compound 860, 4-(7-(1-methyl-1H-pyrazol-4-yl)-8-(piperidin-4-yloxy)quinazolin-2-ylamino)benzenesulfonamide]: the IC50 – broadly, the concentration needed to halve the response being measured – in assay [1] was less than 5 µM. Besides, in assay [2], the EC50 was less than 5 µM.

`NS(=O)(=O)c1ccc(Nc2ncc3ccc(-c4ncco4)c(OC4CCNCC4)c3n2)cc1` [Compound 861, 4-(7-(oxazol-2-yl)-8-(piperidin-4-yloxy)quinazolin-2-ylamino)benzenesulfonamide]: the IC50 in assay [1] was less than 5 µM. Moreover, the EC50 in assay [2] is less than 5 µM.

Consider `NS(=O)(=O)c1ccc(Nc2ncc3ccc(-c4nccs4)c(OC4CCNCC4)c3n2)cc1` [Compound 862, 4-(8-(piperidin-4-yloxy)-7-(thiazol-2-yl)quinazolin-2-ylamino)benzenesulfonamide], for which the IC50 in assay [1] was less than 5 µM. For the same molecule, the EC50 in assay [2] is less than 5 µM.

As to `NS(=O)(=O)c1ccc(Nc2ncc3ccc(-c4ccccn4)c(OC4CCNCC4)c3n2)cc1` [Compound 863, 4-(8-(piperidin-4-yloxy)-7-(pyridin-2-yl)quinazolin-2-ylamino)benzenesulfonamide], in assay [1], the IC50 is less than 5 µM. In assay [2], the EC50 is less than 5 µM.

Consider `N#Cc1ccc2cnc(Nc3ccc(S(N)(=O)=O)cc3)nc2c1OC1CCNCC1` [Compound 864, 4-(7-cyano-8-(piperidin-4-yloxy)quinazolin-2-ylamino)benzenesulfonamide], for which, in assay [1], the IC50 is less than 5 µM. The EC50 in assay [2] is less than 5 µM.

For `Cc1n[nH]c(C)c1-c1ccc2cnc(Nc3ccc(S(N)(=O)=O)cc3)nc2c1` [Compound 865, 4-(7-(3,5-dimethyl-1H-pyrazol-4-yl)quinazolin-2-ylamino)benzenesulfonamide], the IC50 in assay [1] is less than 5 µM. In addition, the EC50 in assay [2] is less than 5 µM.

In the case of `NS(=O)(=O)c1ccc(Nc2ncc3ccc(-c4cnoc4)cc3n2)cc1` [Compound 866, 4-(7-(isoxazol-4-yl)quinazolin-2-ylamino)benzenesulfonamide], the IC50 in assay [1] is less than 5 µM. The EC50 in assay [2] was less than 5 µM.

For `Cc1noc(C)c1-c1ccc2cnc(Nc3ccc(S(N)(=O)=O)cc3)nc2c1` [Compound 867, 4-(7-(3,5-dimethylisoxazol-4-yl)quinazolin-2-ylamino)benzenesulfonamide], in assay [1], the half-inhibitory concentration (IC50) is less than 5 µM. Moreover, the EC50 in assay [2] is less than 5 µM.

As to `O=S(=O)(c1ccc(Nc2ncc3ccc(-c4cn[nH]c4)cc3n2)cc1)N1CCOCC1` [Compound 868, N-(4-(morpholinosulfonyl)phenyl)-7-(1H-pyrazol-4-yl)quinazolin-2-amine], the IC50 in assay [1] is less than 5 µM. The EC50 in assay [2] was less than 5 µM.

`CN1CCC(c2c(O)ccc3cnc(Nc4ccc(S(N)(=O)=O)cc4)nc23)CC1` [Compound 870, 4-(7-hydroxy-8-(1-methylpiperidin-4-yl)quinazolin-2-ylamino)benzenesulfonamide]: the IC50 in assay [1] was less than 5 µM. The EC50 in assay [2] was less than 5 µM.

As for `CN1CCN(Cc2cccc3cnc(Nc4ccc(S(N)(=O)=O)cc4)nc23)CC1` [Compound 871, 4-(8-((4-methylpiperazin-1-yl)methyl)quinazolin-2-ylamino)benzenesulfonamide], the concentration for half-maximal inhibition (IC50) in assay [1] was less than 5 µM. The EC50 in assay [2] is less than 5 µM.

For `NS(=O)(=O)c1ccc(Nc2ncc3cccc(CN4CCOCC4)c3n2)cc1` [Compound 872, 4-(8-(morpholinomethyl)quinazolin-2-ylamino)benzenesulfonamide], the IC50 in assay [1] was less than 5 µM. Besides, the EC50 in assay [2] was less than 5 µM.

In the case of `NS(=O)(=O)c1ccc(Nc2ncc3cccc(Nc4ccc(F)cc4)c3n2)cc1` [Compound 873, 4-(8-(4-fluorophenylamino)quinazolin-2-ylamino)benzenesulfonamide], in assay [1], the IC50 is less than 5 µM. The EC50 in assay [2] is less than 5 µM.

As to `CC(C)N1CCC(Oc2ccc3cnc(Nc4ccc(S(=O)(=O)N5CCOCC5)cc4)nc3c2)CC1` [Compound 874, 7-(1-isopropylpiperidin-4-yloxy)-N-(4-(morpholinosulfonyl)phenyl)quinazolin-2-amine], the IC50 in assay [1] was less than 5 µM. The EC50 in assay [2] was less than 5 µM.

On to `NS(=O)(=O)c1ccc(Nc2ncc3ccc(-c4ccc5c(c4)CCNC5=O)c(OC4CCNCC4)c3n2)cc1` [Compound 875, 4-(7-(1-oxo-1,2,3,4-tetrahydroisoquinolin-6-yl)-8-(piperidin-4-yloxy)quinazolin-2-ylamino)benzenesulfonamide], for which the IC50 in assay [1] is less than 5 µM. Also, the EC50 in assay [2] was 5 to 10 µM.

For `CC(C)Cn1cc(-c2ccc3cnc(Nc4ccc(S(N)(=O)=O)cc4)nc3c2OC2CCNCC2)cn1` [Compound 876, 4-(7-(1-isobutyl-1H-pyrazol-4-yl)-8-(piperidin-4-yloxy)quinazolin-2-ylamino)benzenesulfonamide], the IC50 in assay [1] is less than 5 µM. The EC50 in assay [2] was less than 5 µM.

Regarding `NS(=O)(=O)c1ccc(Nc2ncc3ccc(-c4cnccn4)c(OC4CCNCC4)c3n2)cc1` [Compound 877, 4-(8-(piperidin-4-yloxy)-7-(pyrazin-2-yl)quinazolin-2-ylamino)benzenesulfonamide], in assay [1], the IC50 was less than 5 µM. The EC50 in assay [2] is less than 5 µM.

`NS(=O)(=O)c1ccc(Nc2ncc3ccc(-c4ccc(NCCN5CCCC5)nc4)cc3n2)cc1` [Compound 878, 4-(7-(6-(2-(pyrrolidin-1-yl)ethylamino)pyridin-3-yl)quinazolin-2-ylamino)benzenesulfonamide]: the IC50 in assay [1] was less than 5 µM. For the same molecule, the EC50 in assay [2] was less than 5 µM.

Consider `CN1CCN(c2ccc(-c3ccc4cnc(Nc5ccc(S(N)(=O)=O)cc5)nc4c3)cn2)CC1` [Compound 879, 4-(7-(6-(4-methylpiperazin-1-yl)pyridin-3-yl)quinazolin-2-ylamino)benzenesulfonamide], for which, in assay [1], the IC50 is less than 5 µM. In addition, the EC50 in assay [2] is less than 5 µM.

With `NS(=O)(=O)c1ccc(Nc2ncc3ccc(-c4ccc(N5CCCC5)nc4)cc3n2)cc1` [Compound 880, 4-(7-(6-(pyrrolidin-1-yl)pyridin-3-yl)quinazolin-2-ylamino)benzenesulfonamide], the IC50 in assay [1] was less than 5 µM. The EC50 in assay [2] lay within 5 to 10 µM.

On to `NS(=O)(=O)c1ccc(Nc2ncc3ccc(-c4ccc(N5CCOCC5)nc4)cc3n2)cc1` [Compound 881], for which the IC50 in assay [1] was less than 5 µM. The EC50 in assay [2] is less than 5 µM.

As for `CN1CCN(c2cc(-c3ccc4cnc(Nc5ccc(S(N)(=O)=O)cc5)nc4c3)ccn2)CC1` [Compound 882, 4-(7-(2-(4-methylpiperazin-1-yl)pyridin-4-yl)quinazolin-2-ylamino)benzenesulfonamide], the half-maximal inhibitory concentration (IC50) in assay [1] was less than 5 µM. Moreover, the EC50 in assay [2] was less than 5 µM.

Take `CC(C)CCn1cc(-c2ccc3cnc(Nc4ccc(S(N)(=O)=O)cc4)nc3c2)cn1` [Compound 883, 4-(7-(1-isopentyl-1H-pyrazol-4-yl)quinazolin-2-ylamino)benzenesulfonamide]: the IC50 in assay [1] was less than 5 µM. In addition, in assay [2], the EC50 was less than 5 µM.

Regarding `NC(=O)c1ccc(-c2cc(F)cc3cnc(Nc4ccc(S(N)(=O)=O)cc4)nc23)cc1` [Compound 886, 4-(6-fluoro-2-(4-sulfamoylphenylamino)quinazolin-8-yl)benzamide], the half-maximal inhibitory concentration (IC50) in assay [1] was less than 5 µM. Moreover, the EC50 in assay [2] was in the range of 5 to 10 µM.

For `NS(=O)(=O)c1ccc(Nc2ncc3cccc(-c4ccc5c(c4)CCNC5=O)c3n2)cc1` [Compound 887, 4-(8-(1-oxo-1,2,3,4-tetrahydroisoquinolin-6-yl)quinazolin-2-ylamino)benzenesulfonamide], the IC50 in assay [1] was less than 5 µM. In addition, in assay [2], the EC50 was in the range of 5 to 10 µM.

As to `NS(=O)(=O)c1ccc(Nc2ncc3cc(F)cc(-c4ccc(N5CCNC(=O)C5)nc4)c3n2)cc1` [Compound 889, 4-(6-fluoro-8-(6-(3-oxopiperazin-1-yl)pyridin-3-yl)quinazolin-2-ylamino)benzenesulfonamide], in assay [1], the IC50 was less than 5 µM. Besides, the EC50 in assay [2] is less than 5 µM.

For `NS(=O)(=O)c1ccc(Nc2ncc3cc(F)cc(-c4ccc(N5CCCC5)nc4)c3n2)cc1` [Compound 890, 4-(6-fluoro-8-(6-(pyrrolidin-1-yl)pyridin-3-yl)quinazolin-2-ylamino)benzenesulfonamide], the IC50 in assay [1] was less than 5 µM. Further, the EC50 in assay [2] lay in the range of 5 to 10 µM.

For the molecule `CC(=O)NCCNc1ccc(-c2cc(F)cc3cnc(Nc4ccc(S(N)(=O)=O)cc4)nc23)cn1` [Compound 891, N-(2-(5-(6-fluoro-2-(4-sulfamoylphenylamino)quinazolin-8-yl)pyridin-2-ylamino)ethyl)acetamide], in assay [1], the IC50 was less than 5 µM. Further, the EC50 in assay [2] was less than 5 µM.

With `NS(=O)(=O)c1ccc(Nc2ncc3cccc(Nc4cccnc4)c3n2)cc1` [Compound 895, 4-(8-(pyridin-3-ylamino)quinazolin-2-ylamino)benzenesulfonamide], the IC50 in assay [1] is less than 5 µM. In assay [2], the EC50 was in the range of 5 to 10 µM.
